A word on the Ki: it is a dissociation constant, usually derived from enzyme kinetics or from competition with a known ligand.

The experiment has as its target T1, human dopamine D2 receptor (Homo sapiens, UniProt P14416).
T1 construct: gene DRD2; cloned human D2S receptor
In words: [3H]spiperone competition radioligand binding, membranes of CHO-K1 cells stably expressing human D2S.

T1 sequence (P14416 1-414 isoform P14416-2): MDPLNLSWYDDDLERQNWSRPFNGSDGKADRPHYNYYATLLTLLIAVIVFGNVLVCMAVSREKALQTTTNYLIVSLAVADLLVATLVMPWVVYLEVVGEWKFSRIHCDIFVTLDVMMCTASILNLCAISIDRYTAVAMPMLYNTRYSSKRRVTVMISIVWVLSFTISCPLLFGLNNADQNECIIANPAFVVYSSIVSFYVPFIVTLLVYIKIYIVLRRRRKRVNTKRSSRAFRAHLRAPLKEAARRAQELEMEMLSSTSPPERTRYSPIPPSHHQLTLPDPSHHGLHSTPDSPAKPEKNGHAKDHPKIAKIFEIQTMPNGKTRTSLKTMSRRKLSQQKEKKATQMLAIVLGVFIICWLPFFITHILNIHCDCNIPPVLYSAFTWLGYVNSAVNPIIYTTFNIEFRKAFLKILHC

For `CCOc1ccc2[nH]cc(C3=CCN(Cc4ccccc4)CC3)c2c1` [D2AAK1_3, 3-(1-Benzyl-1,2,3,6-tetrahydropyridin-4-yl)-5-ethoxy-1H-indole], the affinity corresponds to a Ki of 151 nM.

(Values after publication PMC6225423, “Synthesis, Structural and Thermal Studies of 3-(1-Benzyl-1,2,3,6-tetrahydropyridin-4-yl)-5-ethoxy-1H-indole (D2AAK1_3) as Dopamine D2 Receptor Ligand” (Molecules : A Journal of Synthetic Chemistry and Natural …, 2018).)
